This is an account of results in PubChem BioAssay AID1053182 (The Scripps Research Institute Molecular Screening Center, 2014).

Active and inactive are the calls of the source. How the calls were made is not given here.

As a reminder, the EC50 is the concentration at which the effect is half-maximal.

In the experiment the target is Trace amine-associated receptor 1 (Homo sapiens) (UniProt Q96RJ0). The experiment is described as follows: agonism at human TAAR1, counter-screen – cell-based, fluorescence, MedChem round 2, counter-screen for TAAR1 antagonist project, SAR follow-up (AID 1053182). The note with it: TAAR1-expressing cells, cAMP fluorescence agonist mode. Background: The purpose of a counterscreen is to sort out artefacts and off-target activity.
Sequence of Trace amine-associated receptor 1 (Homo sapiens) (Q96RJ0 whole entry, looked up, the tested form may be a part): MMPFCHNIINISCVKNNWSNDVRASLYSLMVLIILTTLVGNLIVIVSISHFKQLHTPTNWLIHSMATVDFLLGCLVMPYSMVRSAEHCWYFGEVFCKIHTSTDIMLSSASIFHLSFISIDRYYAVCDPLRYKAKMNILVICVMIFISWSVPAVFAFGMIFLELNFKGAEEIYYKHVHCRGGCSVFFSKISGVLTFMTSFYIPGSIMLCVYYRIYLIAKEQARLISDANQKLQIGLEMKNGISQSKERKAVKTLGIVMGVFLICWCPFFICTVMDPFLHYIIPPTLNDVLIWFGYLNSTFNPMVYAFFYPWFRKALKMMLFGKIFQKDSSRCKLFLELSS
With `N#Cc1c(C(F)(F)F)cc(-c2ccc(Cl)cc2)nc1SCC(=O)N1CCCC1`, the EC50 is > 29900 nM (inactive).

For the molecule `N#Cc1c(C(F)(F)F)cc(-c2ccc(Cl)cc2)nc1SCC(=O)N1CCCCCC1`, the EC50 is > 29900 nM (inactive).

`N#Cc1c(C(F)(F)F)cc(-c2ccc(Cl)cc2)nc1SCC(=O)Nc1ncccn1`: the EC50 is > 29900 nM (inactive).

In the case of `CC(CN1CCCC1Cc1ccccc1)C(=O)c1ccc2c(c1)OCCO2` (configuration not stated), the 50% effective concentration (EC50) is 245 nM.

Take `O=C(CCN1CCC(c2ccccc2)C1)c1ccccc1` (configuration not stated): the half-maximal effective concentration (EC50) is 100 nM.

Consider `COc1cc(C(=O)CCN2CCC(c3ccccc3)C2)cc(OC)c1OC` (configuration not stated), for which the EC50 was 122 nM.

Regarding `Cc1ccc(C(=O)CCN2CCC(c3ccccc3)C2)cc1` (configuration not stated), the 50% effective concentration (EC50) is 282 nM.
